Target: GLP-1R (Homo sapiens, UniProt P43220)
Experiment: GLP-1R Activation - cAMP Assay
Assay type: cell-based
Details: cAMP increase in CHO cells stably expressing GLP-1R; each compound run on one of the two cAMP assays (Assay 1 or Assay 2, not specified)
Procedure, shortened: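 cAMP rise read by HTRF after 30 min agonist exposure (10-point titration, 37 °C) in HBSS/20 mM Hepes/0.1% BSA, following 1 h pre-incubation. Cells: stable GLP-1R CHO line, 1,000/well, seeded overnight. Sigmoidal fit of response vs log concentration gives EC50.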

Chain of GLP-1R (P43220 24-463): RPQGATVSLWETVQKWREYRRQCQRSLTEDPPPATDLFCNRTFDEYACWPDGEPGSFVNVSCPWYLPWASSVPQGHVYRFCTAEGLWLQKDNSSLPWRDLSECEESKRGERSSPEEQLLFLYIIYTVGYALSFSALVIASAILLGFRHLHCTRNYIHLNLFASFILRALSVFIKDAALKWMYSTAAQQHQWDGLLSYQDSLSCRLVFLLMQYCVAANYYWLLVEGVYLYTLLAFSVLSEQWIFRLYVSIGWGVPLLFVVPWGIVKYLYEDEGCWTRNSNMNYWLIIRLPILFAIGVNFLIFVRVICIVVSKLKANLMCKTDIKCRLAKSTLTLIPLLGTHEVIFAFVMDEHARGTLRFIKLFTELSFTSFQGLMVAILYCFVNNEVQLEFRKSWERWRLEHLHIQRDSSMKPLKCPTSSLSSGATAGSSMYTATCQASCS

EC50 [pM]	Compound
110	CC1(C)COC[C@H]1n1c(Cc2cc(F)c(-c3cccc(OCc4ccc(-c5cnn(C(F)F)c5)cc4)n3)cc2F)nc2ccc(C(=O)O)cc21 [Example 551, (S)-2-(4-(6-((4-(1-(difluoromethyl)-1H-pyrazol-4-yl)benzyl)oxy)pyridin-2-yl)-2,5-difluorobenzyl)-1-(4,4-dimethyltetrahydrofuran-3-yl)-1H-benzo[d]imidazole-6-carboxylic acid]
990	CC1(C)COC[C@H]1n1c(Cc2cc(F)c(-c3cccc(OCc4cnc(-c5cnn(C(F)F)c5)cc4Cl)n3)cc2F)nc2ccc(C(=O)O)cc21 [Example 552, (S)-2-(4-(6-((4-chloro-6-(1-(difluoromethyl)-1H-pyrazol-4-yl)pyridin-3-yl)methoxy)pyridin-2-yl)-2,5-difluorobenzyl)-1-(4,4-dimethyltetrahydrofuran-3-yl)-1H-benzo[d]imidazole-6-carboxylic acid]
132	Cn1ncc(-c2ccc(COc3cccc(-c4cc(F)c(Cc5nc6ccc(C(=O)O)cc6n5[C@@H]5COCC5(C)C)cc4F)n3)c(F)c2)n1 [Example 553, (S)-2-(2,5-difluoro-4-(6-((2-fluoro-4-(2-methyl-2H-1,2,3-triazol-4-yl)benzyl)oxy)pyridin-2-yl)benzyl)-1-(4,4-dimethyltetrahydrofuran-3-yl)-1H-benzo[d]imidazole-6-carboxylic acid]
26	Cn1nncc1-c1ccc(COc2cccc(-c3cc(F)c(Cc4nc5ccc(C(=O)O)cc5n4[C@@H]4COCC4(C)C)cc3F)n2)c(F)c1 [Example 554, (S)-2-(2,5-difluoro-4-(6-((2-fluoro-4-(1-methyl-1H-1,2,3-triazol-5-yl)benzyl)oxy)pyridin-2-yl)benzyl)-1-(4,4-dimethyltetrahydrofuran-3-yl)-1H-benzo[d]imidazole-6-carboxylic acid]
47	Cn1cc(-c2cc(F)c(COc3cccc(-c4cc(F)c(Cc5nc6ccc(C(=O)O)cc6n5[C@@H]5COCC5(C)C)cc4F)n3)cn2)nn1 [Example 555, (S)-2-(2,5-difluoro-4-(6-((4-fluoro-6-(1-methyl-1H-1,2,3-triazol-4-yl)pyridin-3-yl)methoxy)pyridin-2-yl)benzyl)-1-(4,4-dimethyltetrahydrofuran-3-yl)-1H-benzo[d]imidazole-6-carboxylic acid]
262	COC[C@H]1COC[C@H]1n1c(Cc2cc(F)c(-c3cccc(OCc4ccc(C(F)(F)F)cc4)n3)cc2F)nc2ccc(C(=O)O)cc21 [Example 556, 2-(2,5-difluoro-4-(6-((4-(trifluoromethyl)benzyl)oxy)pyridin-2-yl)benzyl)-1-((3S,4S)-4-(methoxymethyl)tetrahydrofuran-3-yl)-1H-benzo[d]imidazole-6-carboxylic acid]
31	CC1(C)COC[C@H]1n1c(Cc2cc(F)c(-c3ccc(F)c(OCc4ccc(F)cc4)n3)cc2F)nc2ccc(C(=O)O)cc21 [Example 557, (S)-2-(2,5-difluoro-4-(5-fluoro-6-((4-fluorobenzyl)oxy)pyridin-2-yl)benzyl)-1-(4,4-dimethyltetrahydrofuran-3-yl)-1H-benzo[d]imidazole-6-carboxylic acid]
132	CC1(C)COC[C@H]1n1c(Cc2c(F)cc(-c3ccc(F)c(OCc4ccc(F)cc4)n3)c(F)c2F)nc2ccc(C(=O)O)cc21 [Example 558, (S)-1-(4,4-dimethyltetrahydrofuran-3-yl)-2-(2,3,6-trifluoro-4-(5-fluoro-6-((4-fluorobenzyl)oxy)pyridin-2-yl)benzyl)-1H-benzo[d]imidazole-6-carboxylic acid]
195	COC[C@H]1COC[C@H]1n1c(Cc2cc(F)c(-c3ccc(F)c(OCc4ccc(Cl)cc4F)c3)cc2F)nc2ccc(C(=O)O)cc21 [Example 559, 2-((3′-((4-chloro-2-fluorobenzyl)oxy)-2,4′,5-trifluoro-[1,1′-biphenyl]-4-yl)methyl)-1-((3S,4S)-4-(methoxymethyl)tetrahydrofuran-3-yl)-1H-benzo[d]imidazole-6-carboxylic acid]
192	O=C(O)c1ccc2nc(Cc3cc(F)c(-c4cccc(OCc5cnc(-n6ccnn6)cc5Cl)n4)cc3F)n(CCOC(F)F)c2c1 [Example 560, 2-(4-(6-((4-chloro-6-(1H-1,2,3-triazol-1-yl)pyridin-3-yl)methoxy)pyridin-2-yl)-2,5-difluorobenzyl)-1-(2-(difluoromethoxy)ethyl)-1H-benzo[d]imidazole-6-carboxylic acid]
558	CC(C)OCCn1c(Cc2cc(F)c(-c3cccc(OCc4cnc(-n5ccnn5)cc4Cl)n3)cc2F)nc2ccc(C(=O)O)cc21 [Example 561, 2-(4-(6-((4-chloro-6-(1H-1,2,3-triazol-1-yl)pyridin-3-yl)methoxy)pyridin-2-yl)-2,5-difluorobenzyl)-1-(2-isopropoxyethyl)-1H-benzo[d]imidazole-6-carboxylic acid]
207	O=C(O)c1ccc2nc(Cc3cc(F)c(-c4cccc(OCc5cnc(-n6ccnn6)cc5Cl)n4)cc3F)n(CCOC3CC3)c2c1 [Example 562, 2-(4-(6-((4-chloro-6-(1H-1,2,3-triazol-1-yl)pyridin-3-yl)methoxy)pyridin-2-yl)-2,5-difluorobenzyl)-1-(2-cyclopropoxyethyl)-1H-benzo[d]imidazole-6-carboxylic acid]
41	COC(C)(C)Cn1c(Cc2cc(F)c(-c3cccc(OCc4cnc(-n5ccnn5)cc4Cl)n3)cc2F)nc2ccc(C(=O)O)cc21 [Example 563, 2-(4-(6-((4-chloro-6-(1H-1,2,3-triazol-1-yl)pyridin-3-yl)methoxy)pyridin-2-yl)-2,5-difluorobenzyl)-1-(2-methoxy-2-methylpropyl)-1H-benzo[d]imidazole-6-carboxylic acid]
2290	CO[C@@H](C)[C@H](C)n1c(Cc2cc(F)c(-c3cccc(OCc4ccc(Cl)cc4F)n3)cc2F)nc2ccc(C(=O)O)cc21 [Example 564, 2-(4-(6-((4-chloro-2-fluorobenzyl)oxy)pyridin-2-yl)-2,5-difluorobenzyl)-1-((2S,3S)-3-methoxybutan-2-yl)-1H-benzo[d]imidazole-6-carboxylic acid]
194	CO[C@H](C)[C@@H](C)n1c(Cc2cc(F)c(-c3cccc(OCc4ccc(Cl)cc4F)n3)cc2F)nc2ccc(C(=O)O)cc21 [Example 565, 2-(4-(6-((4-chloro-2-fluorobenzyl)oxy)pyridin-2-yl)-2,5-difluorobenzyl)-1-((2R,3R)-3-methoxybutan-2-yl)-1H-benzo[d]imidazole-6-carboxylic acid]
100000	COCCn1c(Cc2cc(F)c(-c3cccc(OCc4cnc(-n5nc6c(n5)CCCC6)cc4Cl)n3)cc2F)nc2ccc(C(=O)O)cc21 [Example 567, 2-(4-(6-((4-chloro-6-(4,5,6,7-tetrahydro-2H-benzo[d][1,2,3]triazol-2-yl)pyridin-3-yl)methoxy)pyridin-2-yl)-2,5-difluorobenzyl)-1-(2-methoxyethyl)-1H-benzo[d]imidazole-6-carboxylic acid]
1560	COCCn1c(Cc2cc(F)c(-c3cccc(OCc4cnc(-n5nnc6c5CCCC6)cc4Cl)n3)cc2F)nc2ccc(C(=O)O)cc21 [Example 568, 2-(4-(6-((4-chloro-6-(4,5,6,7-tetrahydro-1H-benzo[d][1,2,3]triazol-1-yl)pyridin-3-yl)methoxy)pyridin-2-yl)-2,5-difluorobenzyl)-1-(2-methoxyethyl)-1H-benzo[d]imidazole-6-carboxylic acid]
955	CC(C)O[C@H]1COC[C@H]1n1c(Cc2cc(F)c(-c3cccc(OCc4ccc(Cl)cc4F)n3)cc2F)nc2ccc(C(=O)O)cc21 [Example 570, 2-(4-(6-((4-chloro-2-fluorobenzyl)oxy)pyridin-2-yl)-2,5-difluorobenzyl)-1-((3R,4R)-4-isopropoxytetrahydrofuran-3-yl)-1H-benzo[d]imidazole-6-carboxylic acid]
1270	CCO[C@H]1COC[C@H]1n1c(Cc2cc(F)c(-c3cccc(OCc4ccc(Cl)cc4F)n3)cc2F)nc2ccc(C(=O)O)cc21 [Example 571, 2-(4-(6-((4-chloro-2-fluorobenzyl)oxy)pyridin-2-yl)-2,5-difluorobenzyl)-1-((3R,4R)-4-ethoxytetrahydrofuran-3-yl)-1H-benzo[d]imidazole-6-carboxylic acid]
457	CC1(C)COC[C@H]1n1c(Cc2c(F)cc(-c3ccnc(OCc4ccc(F)cc4)n3)c(F)c2F)nc2ccc(C(=O)O)cc21 [Example 574, (S)-1-(4,4-dimethyltetrahydrofuran-3-yl)-2-(2,3,6-trifluoro-4-(2-((4-fluorobenzyl)oxy)pyrimidin-4-yl)benzyl)-1H-benzo[d]imidazole-6-carboxylic acid]
186	CC1(C)COC[C@H]1n1c(Cc2cc(F)c(-c3ccnc(OCc4ccc(F)cc4)n3)cc2F)nc2ccc(C(=O)O)cc21 [Example 575, (S)-2-(2,5-difluoro-4-(2-((4-fluorobenzyl)oxy)pyrimidin-4-yl)benzyl)-1-(4,4-dimethyltetrahydrofuran-3-yl)-1H-benzo[d]imidazole-6-carboxylic acid]

Compound	EC50 [pM]
CC(C)COCCn1c(Cc2cc(F)c(-c3cccc(OCc4ccc(Cl)cc4F)n3)cc2F)nc2ccc(C(=O)O)cc21 [Example 566, 2-(4-(6-((4-chloro-2-fluorobenzyl)oxy)pyridin-2-yl)-2,5-difluorobenzyl)-1-(2-isobutoxyethyl)-1H-benzo[d]imidazole-6-carboxylic acid]	4090
CC(C)COCCn1c(Cc2cc(F)c(-c3cccc(OCc4cnc(-n5ccnn5)cc4Cl)n3)cc2F)nc2ccc(C(=O)O)cc21 [Example 569, 2-(4-(6-((4-chloro-6-(1H-1,2,3-triazol-1-yl)pyridin-3-yl)methoxy)pyridin-2-yl)-2,5-difluorobenzyl)-1-(2-isobutoxyethyl)-1H-benzo[d]imidazole-6-carboxylic acid]	987

Source: patent publication US12570642B2, “GLP-IR modulating compounds” (Gilead Sciences, Inc., priority 2021, dated 2026)
